“And” between values parts separate entries of the source, which are not always exact repeats. Identical values can stand only once. Like-named read-outs stand apart in the source and are kept apart here.
Tests used:
[1] = Chronic toxicity in rats, intramuscular 30 days: clinical observation and body weight; details: 3, 9, or 20 mg/kg intramuscularly daily for a month
[2] = rat, in vivo
[3] = rat, in vivo; remark: listed apart in the source
[4] = rat, in vivo; remark: listed apart in the source
[5] = test system: A/Swine/1976/31 (H1N1) influenza virus; assay type: in vivo, mice; details: for Infectious virus titer (log10EID50/20 mg tissue): lung tissue
[6] = test system: Ehrlich ascites carcinoma; test: Ehrlich ascites carcinoma in white mice, body weight dynamics
[7] = test system: ascites Ehrlich carcinoma cells; test: Apoptosis in ascites Ehrlich carcinoma cells of treated mice (cytofluorimetric analysis); assay type: in vivo
[8] = test system: type 1 human immunodeficiency virus; test: Antiviral activity on HIV-1 infected human cell model (cell staining, CPE, syncytium formation); details: for CPE/syncytia (+): number of pluses of the four-plus system; for Cell survival rate, % / Number of cells × 10^3/mL: HIV-1 infected cells
[9] = rat, in vivo; remark: listed apart in the source
[10] = ascites cells having large sizes and granularity (tumor cells)
[11] = ascites cells of moderate size and granularity

Substance: N-fullerene tris(δ-aminocaproic acid) hydrate [Agent 1]
- clinical signs of poisoning [1]: no clinical signs of poisoning were observed
- Weight coefficients of viscera, Spleen [2]: 5.2 ± 0.7 g/kg body weight
- Weight coefficients of viscera, heart [2]: 4.1 ± 0.4 g/kg body weight
- Weight coefficients of viscera, kidneys [2]: 6.5 ± 0.4 g/kg body weight
- Weight coefficients of viscera, liver [2]: 32.2 ± 1.8 g/kg body weight
- Weight coefficients of viscera, lungs [2]: 7.1 ± 0.5 g/kg body weight
- Weight coefficients of viscera, thymus [2]: 1.2 ± 0.4 g/kg body weight
- weight coefficients of organs versus control [2]: no significant difference was found between experimental and control animals
- weight coefficients of viscera versus control [2]: no distinctions between the rats of the experimental groups and the control group
- Weight coefficients of viscera, Spleen ([2]; 3 mg/kg): 4.7 ± 0.5 g/kg body weight
- Weight coefficients of viscera, heart ([2]; 3 mg/kg): 3.5 ± 0.7 g/kg body weight
- Weight coefficients of viscera, kidneys ([2]; 3 mg/kg): 7.2 ± 0.5 g/kg body weight
- Weight coefficients of viscera, heart ([2]; 9 mg/kg): 3.8 ± 0.6 g/kg body weight
- Alkali hosphatase, Units/L ([3]; 3 mg/kg): 143 ± 47 Units/L
- Cholesterol ([3]; 3 mg/kg): 4.17 ± 0.68 mmol/L
- Glucose ([3]; 3 mg/kg): 7.64 ± 1.56 mmol/L
- Total proten ([3]; 3 mg/kg): 71.12 ± 6.66 g/L
- Alkali hosphatase, Units/L ([3]; 9 mg/kg): 159 ± 28 Units/L
- Glucose ([3]; 9 mg/kg): 7.18 ± 0.80 mmol/L
- Total protein ([3]; 9 mg/kg): 68.94 ± 2.97 g/L
- Total proten ([3]; 9 mg/kg): 78.48 ± 8.94 g/L
- Alkali hosphatase, Units/L ([3]; 20 mg/kg): 248 ± 107 Units/L
- Total proten ([3]; 20 mg/kg): 72.76 ± 8.11 g/L
- Urea ([3]; 20 mg/kg): 9.22 ± 1.56 mmol/L
- Basophils, % ([4]; 3 mg/kg): 0%
- Erythrocytes, Mln/mm ([4]; 3 mg/kg): 6.5 ± 1.2 Mln/mm
- Young, % ([4]; 3 mg/kg): 0%
- Basophils, % ([4]; 9 mg/kg): 0%
- Erythrocytes, Mln/mm ([4]; 9 mg/kg): 6.4 ± 0.5 Mln/mm
- Young, % ([4]; 9 mg/kg): 0%
- Avg. erythr. volume., mcm ([4]; 20 mg/kg): 50.4 ± 1.5 mcm
- Basophils, % ([4]; 20 mg/kg): 0%
- Erythrocytes, Mln/mm ([4]; 20 mg/kg): 6.3 ± 0.8 Mln/mm
- Hematocrit, % ([4]; 20 mg/kg): 31.2 ± 3.5%
- Young, % ([4]; 20 mg/kg): 0%
- Average lifetime (LD) ([5]; 30 mg/kg, Summary dose, n=30): 10.6 days
- Increase in LD ([5]; 30 mg/kg, Summary dose, n=30): 1.9 days
- Mortality rate, % ([5]; 30 mg/kg, Summary dose, n=30): 56.7%
- Number of survivors ([5]; 30 mg/kg, Summary dose, n=30): 13
- Average lifetime (LD) ([5]; 30 mg/kg, virus 1 LD50, n=15): 12.3 days
- Increase in LD ([5]; 30 mg/kg, virus 1 LD50, n=15): 1.7 days
- Mortality rate, % ([5]; 30 mg/kg, virus 1 LD50, n=15): 40.0%
- Number of survivors ([5]; 30 mg/kg, virus 1 LD50, n=15): 9
- Average lifetime (LD) ([5]; 30 mg/kg, virus 10 LD50, n=15): 8.9 days
- Increase in LD ([5]; 30 mg/kg, virus 10 LD50, n=15): 2.4 days
- Mortality rate, % ([5]; 30 mg/kg, virus 10 LD50, n=15): 73.3%
- Number of survivors ([5]; 30 mg/kg, virus 10 LD50, n=15): 4
- Average lifetime (LD) ([5]; 100 mg/kg, Summary dose, n=28): 11.8 days
- Increase in LD ([5]; 100 mg/kg, Summary dose, n=28): 3.1 days
- Mortality rate, % ([5]; 100 mg/kg, Summary dose, n=28): 39.3%
- Number of survivors ([5]; 100 mg/kg, Summary dose, n=28): 17
- Average lifetime (LD) ([5]; 100 mg/kg, virus 1 LD50, n=15): 13.1 days
- Increase in LD ([5]; 100 mg/kg, virus 1 LD50, n=15): 2.5 days
- Mortality rate, % ([5]; 100 mg/kg, virus 1 LD50, n=15): 26.7%
- Number of survivors ([5]; 100 mg/kg, virus 1 LD50, n=15): 11
- Average lifetime (LD) ([5]; 100 mg/kg, virus 10 LD50, n=13): 10.3 days
- Increase in LD ([5]; 100 mg/kg, virus 10 LD50, n=13): 3.7 days
- Mortality rate, % ([5]; 100 mg/kg, virus 10 LD50, n=13): 53.8%
- Number of survivors ([5]; 100 mg/kg, virus 10 LD50, n=13): 6
- Average lifetime (LD) ([5]; 300 mg/kg, Summary dose, n=28): 12.3 days
- Increase in LD ([5]; 300 mg/kg, Summary dose, n=28): 3.7 days
- Mortality rate, % ([5]; 300 mg/kg, Summary dose, n=28): 32.1%
- Number of survivors ([5]; 300 mg/kg, Summary dose, n=28): 19
- Size of chronic post-influenza pneumonia sites (% of the total surface area of the lungs) ([5]; 300 mg/kg, the lower of the virus doses used, day 15): 25 ± 7%
- Average lifetime (LD) ([5]; 300 mg/kg, virus 1 LD50, n=14): 13.6 days
- Increase in LD ([5]; 300 mg/kg, virus 1 LD50, n=14): 3.0 days
- Mortality rate, % ([5]; 300 mg/kg, virus 1 LD50, n=14): 21.4%
- Number of survivors ([5]; 300 mg/kg, virus 1 LD50, n=14): 11
- Average lifetime (LD) ([5]; 300 mg/kg, virus 10 LD50, n=14): 11.0 days
- Increase in LD ([5]; 300 mg/kg, virus 10 LD50, n=14): 4.4 days
- Mortality rate, % ([5]; 300 mg/kg, virus 10 LD50, n=14): 42.9%
- Number of survivors ([5]; 300 mg/kg, virus 10 LD50, n=14): 8
- Infectious virus titer (log10EID50/20 mg tissue) ([5]; 300 mg/kg, virus dose 1 LD50): 3.7 ± 0.3 log10EID50/20 mg tissue
- Infectious virus titer (log10EID50/20 mg tissue) ([5]; 300 mg/kg, virus dose 5 LD50): 4.1 ± 0.2 log10EID50/20 mg tissue
- Animal body weight ([6]; day 1 post tumor transplantation): 18.6 ± 2.3 g
- Animal body weight ([6]; day 3 post tumor transplantation): 18.8 ± 2.2 g
- Animal body weight ([6]; day 5 post tumor transplantation): 18.8 ± 1.9 g
- Animal body weight ([6]; day 8 post tumor transplantation): 19.4 ± 1.7 g
- Animal body weight ([6]; day 10 post tumor transplantation): 19.9 ± 1.7 g
- Animal body weight ([6]; day 13 post tumor transplantation): 20.4 ± 1.5 g
- Animal body weight ([6]; day 15 post tumor transplantation): 20.4 ± 1.4 g
- AnV^+ 7AAD^+ (late apoptosis) [7, 10]: 69.5 ± 5.8%
- AnV^+ 7AAD^− (early apoptosis) [7, 10]: 0.1 ± 0.1%
- AnV^−7AAD^− (living cells) [7, 10]: 0.3 ± 0.1%
- AnV^−7AAD^+ (necrosis) ([7]; ascites cells having large sizes and granularity (tumor cells), hydrate): 30.2% and 30.2 ± 5.9%
- Percent amount of cells with the phenotype AnV^+ 7AAD^+ (late apoptosis) [7, 11]: 4.2 ± 2.4%
- Percent amount of cells with the phenotype AnV^+ 7AAD^− early apoptosis [7, 11]: 31.1 ± 10.4%
- Percent amount of cells with the phenotype AnV^−7AAD^+ (necrosis) [7, 11]: 0.4 ± 0.4%
- Percent amount of cells with the phenotype AnV^−7AAD^− (living cells) [7, 11]: 6.1 ± 6.2%
- CPE/syncytia (+) ([8]; 0.5 mcg/mL): 4.0 +
- CPE/syncytia (+) ([8]; 1.0 mcg/mL): 2.0 +
- CPE/syncytia (+) ([8]; 5.0 mcg/mL): 0 +
- CPE/syncytia (+) ([8]; 10 mcg/mL): 0 +
- Cell survival rate, % ([8]; 0.5 mcg/mL): 27%
- Number of cells × 10^3/mL ([8]; 0.5 mcg/mL): 133.2 10^3/mL
- Cell survival rate, % ([8]; 1.0 mcg/mL): 75%
- Number of cells × 10^3/mL ([8]; 1.0 mcg/mL): 320.4 10^3/mL
- Cell survival rate, % ([8]; 5.0 mcg/mL): 92%
- Number of cells × 10^3/mL ([8]; 5.0 mcg/mL): 480.0 10^3/mL
- Cell survival rate, % ([8]; 10 mcg/mL): 95%
- Number of cells × 10^3/mL ([8]; 10 mcg/mL): 579.3 10^3/mL
- EC50 (50% effective concentration) ([8]; HIV-1 infected human cells): 5.0 µg/mL
- induction of microscopic changes in organs [9]: the identified changes were not induced by the studied substance
- Animals with changes, Number: Liver, Plethora of sinusoidal capillaries ([9]; 20 mg/kg): 5
- Animals with changes, Number: Lung, Thickening of the interalveolar septa (total) ([9]; 20 mg/kg): 1

Reference: patent US9096492B2, “Hydrated N-fullerene amino acids, method for producing the latter, and pharmaceutical compositions on the basis thereof” (priority 2011, dated 2015)
